Test results published in paper PMC9569420 (Communications Biology, 2022).

What was measured:
[1] = biological target: T1, EPHA1 (Homo sapiens, UniProt P21709); assay: HotSpot kinase assay; format: biochemical; details: read-out: % Enzyme Activity (relative to DMSO controls)
T1 construct: purchased Reaction Biology Corporation

[2] = system: HaCat cells; assay: western blot for cleaved PARP-1 or cleaved caspase 8; details: 0.1, 1, or 10 µM, 8 h
[3] = biological target: T2, MSK2/RPS6KA4 (Homo sapiens, UniProt O75676); assay: HotSpot kinase assay; format: biochemical; details: read-out: % Enzyme Activity (relative to DMSO controls)
T2 construct: purchased Reaction Biology Corporation

[4] = biological target: T3, EPHA8 (Homo sapiens, UniProt P29322); assay: HotSpot kinase assay; format: biochemical; details: read-out: % Enzyme Activity (relative to DMSO controls)
T3 construct: purchased Reaction Biology Corporation

[5] = biological target: T4, PYK2 (Homo sapiens, UniProt Q14289); assay: HotSpot kinase assay; format: biochemical; details: read-out: % Enzyme Activity (relative to DMSO controls)
T4 construct: purchased Reaction Biology Corporation

[6] = biological target: T5, ERBB2/HER2 (Homo sapiens, UniProt P04626); assay: biochemical; details: read-out: % Enzyme Activity (relative to DMSO controls)
T5 construct: purchased Reaction Biology Corporation

[7] = biological target: T6, CAMK1b (Homo sapiens, UniProt Q6P2M8); assay: HotSpot kinase assay; format: biochemical; details: read-out: % Enzyme Activity (relative to DMSO controls)
T6 construct: purchased Reaction Biology Corporation

[8] = biological target: T7, MSK1/RPS6KA5 (Homo sapiens, UniProt O75582); assay: HotSpot kinase assay; format: biochemical; details: read-out: % Enzyme Activity (relative to DMSO controls)
T7 construct: purchased Reaction Biology Corporation

[9] = biological target: T8, MEKK2 (Homo sapiens, UniProt Q9Y2U5); assay: HotSpot kinase assay; format: biochemical; details: read-out: % Enzyme Activity (relative to DMSO controls)
T8 construct: purchased Reaction Biology Corporation

[10] = biological target: T9, CDK2/cyclin E2 (Homo sapiens, UniProt P24941); assay: HotSpot kinase assay; format: biochemical; details: read-out: % Enzyme Activity (relative to DMSO controls)
T9 construct: purchased Reaction Biology Corporation

[11] = biological target: T10, PKN2/PRK2 (Homo sapiens, UniProt Q16513); assay: HotSpot kinase assay; format: biochemical; details: read-out: % Enzyme Activity (relative to DMSO controls)
T10 construct: purchased Reaction Biology Corporation

[12] = biological target: T11, JAK2 (Homo sapiens, UniProt O60674); assay: HotSpot kinase assay; format: biochemical; details: read-out: % Enzyme Activity (relative to DMSO controls)
T11 construct: purchased Reaction Biology Corporation

[13] = biological target: T12, CAMK1d (Homo sapiens, UniProt Q8IU85); assay: HotSpot kinase assay; format: biochemical; details: read-out: % Enzyme Activity (relative to DMSO controls)
T12 construct: purchased Reaction Biology Corporation

[14] = biological target: T13, CDK4/cyclin D3 (Homo sapiens, UniProt P11802); assay: HotSpot kinase assay; format: biochemical; details: read-out: % Enzyme Activity (relative to DMSO controls)
T13 construct: purchased Reaction Biology Corporation

[15] = biological target: T14, EPHB2 (Homo sapiens, UniProt P29323); assay: HotSpot kinase assay; format: biochemical; details: read-out: % Enzyme Activity (relative to DMSO controls)
T14 construct: purchased Reaction Biology Corporation

[16] = biological target: T15, SRPK2 (Homo sapiens, UniProt P78362); assay: HotSpot kinase assay; format: biochemical; details: read-out: % Enzyme Activity (relative to DMSO controls)
T15 construct: purchased Reaction Biology Corporation

[17] = biological target: T16, TYRO3/SKY (Homo sapiens, UniProt Q06418); assay: HotSpot kinase assay; format: biochemical; details: read-out: % Enzyme Activity (relative to DMSO controls)
T16 construct: purchased Reaction Biology Corporation

[18] = biological target: T17, CAMK4 (Homo sapiens, UniProt Q16566); assay: HotSpot kinase assay; format: biochemical; details: read-out: % Enzyme Activity (relative to DMSO controls)
T17 construct: purchased Reaction Biology Corporation

[19] = biological target: T18, GRK1 (Homo sapiens, UniProt Q15835); assay: HotSpot kinase assay; format: biochemical; details: read-out: % Enzyme Activity (relative to DMSO controls)
T18 construct: purchased Reaction Biology Corporation

[20] = biological target: T19, PHKg2 (Homo sapiens, UniProt P15735); assay: HotSpot kinase assay; format: biochemical; details: read-out: % Enzyme Activity (relative to DMSO controls)
T19 construct: purchased Reaction Biology Corporation

[21] = biological target: T20, MAST3 (Homo sapiens, UniProt O60307); assay: HotSpot kinase assay; format: biochemical; details: read-out: % Enzyme Activity (relative to DMSO controls)
T20 construct: purchased Reaction Biology Corporation

[22] = biological target: T21, STK25/YSK1 (Homo sapiens, UniProt O00506); assay: HotSpot kinase assay; format: biochemical; details: read-out: % Enzyme Activity (relative to DMSO controls)
T21 construct: purchased Reaction Biology Corporation

[23] = biological target: T22, TIE2/TEK (Homo sapiens, UniProt Q02763); assay: HotSpot kinase assay; format: biochemical; details: read-out: % Enzyme Activity (relative to DMSO controls)
T22 construct: purchased Reaction Biology Corporation

[24] = biological target: T23, SRMS (Homo sapiens, UniProt Q9H3Y6); assay: HotSpot kinase assay; format: biochemical; details: read-out: % Enzyme Activity (relative to DMSO controls)
T23 construct: purchased Reaction Biology Corporation

[25] = biological target: T24, CDK2/cyclin O (Homo sapiens, UniProt P24941); assay: HotSpot kinase assay; format: biochemical; details: read-out: % Enzyme Activity (relative to DMSO controls)
T24 construct: purchased Reaction Biology Corporation

[26] = biological target: T25, P38b/MAPK11 (Homo sapiens, UniProt Q15759); assay: HotSpot kinase assay; format: biochemical; details: read-out: % Enzyme Activity (relative to DMSO controls)
T25 construct: purchased Reaction Biology Corporation

[27] = biological target: T26, PKG1a (Homo sapiens, UniProt Q13976); assay: HotSpot kinase assay; format: biochemical; details: read-out: % Enzyme Activity (relative to DMSO controls)
T26 construct: purchased Reaction Biology Corporation

[28] = biological target: T27, TESK1 (Homo sapiens, UniProt Q15569); assay: HotSpot kinase assay; format: biochemical; details: read-out: % Enzyme Activity (relative to DMSO controls)
T27 construct: purchased Reaction Biology Corporation

[29] = biological target: T28, CLK4 (Homo sapiens, UniProt Q9HAZ1); assay: HotSpot kinase assay; format: biochemical; details: read-out: % Enzyme Activity (relative to DMSO controls)
T28 construct: purchased Reaction Biology Corporation

[30] = biological target: T29, GSK3b (Homo sapiens, UniProt P49841); assay: biochemical; details: read-out: % Enzyme Activity (relative to DMSO controls)
T29 construct: purchased Reaction Biology Corporation

[31] = biological target: T30, MST2/STK3 (Homo sapiens, UniProt Q13188); assay: HotSpot kinase assay; format: biochemical; details: read-out: % Enzyme Activity (relative to DMSO controls)
T30 construct: purchased Reaction Biology Corporation

[32] = biological target: T31, PIM2 (Homo sapiens, UniProt Q9P1W9); assay: HotSpot kinase assay; format: biochemical; details: read-out: % Enzyme Activity (relative to DMSO controls)
T31 construct: purchased Reaction Biology Corporation

[33] = biological target: T32, ARK5/NUAK1 (Homo sapiens, UniProt O60285); assay: HotSpot kinase assay; format: biochemical; details: read-out: % Enzyme Activity (relative to DMSO controls)
T32 construct: purchased Reaction Biology Corporation

[34] = biological target: T33, EPHB3 (Homo sapiens, UniProt P54753); assay: HotSpot kinase assay; format: biochemical; details: read-out: % Enzyme Activity (relative to DMSO controls)
T33 construct: purchased Reaction Biology Corporation

[35] = biological target: T34, EIF2AK3 (Homo sapiens, UniProt Q9NZJ5); assay: HotSpot kinase assay; format: biochemical; details: read-out: % Enzyme Activity (relative to DMSO controls)
T34 construct: purchased Reaction Biology Corporation

[36] = biological target: T35, PKA (Homo sapiens, UniProt P17612); assay: HotSpot kinase assay; format: biochemical
T35 construct: purchased Reaction Biology Corporation

[37] = biological target: T36, YES/YES1 (Homo sapiens, UniProt P07947); assay: HotSpot kinase assay; format: biochemical; details: read-out: % Enzyme Activity (relative to DMSO controls)
T36 construct: purchased Reaction Biology Corporation

[38] = biological target: T37, STK33 (Homo sapiens, UniProt Q9BYT3); assay: HotSpot kinase assay; format: biochemical; details: read-out: % Enzyme Activity (relative to DMSO controls)
T37 construct: purchased Reaction Biology Corporation

[39] = biological target: T38, ROS/ROS1 (Homo sapiens, UniProt P08922); assay: HotSpot kinase assay; format: biochemical; details: read-out: % Enzyme Activity (relative to DMSO controls)
T38 construct: purchased Reaction Biology Corporation

[40] = biological target: T39, SRPK1 (Homo sapiens, UniProt Q96SB4); assay: HotSpot kinase assay; format: biochemical; details: read-out: % Enzyme Activity (relative to DMSO controls)
T39 construct: purchased Reaction Biology Corporation

[41] = biological target: T40, EEF2K (Homo sapiens, UniProt O00418); assay: HotSpot kinase assay; format: biochemical; details: read-out: % Enzyme Activity (relative to DMSO controls)
T40 construct: purchased Reaction Biology Corporation

[42] = biological target: T41, PIM1 (Homo sapiens, UniProt P11309); assay: HotSpot kinase assay; format: biochemical; details: read-out: % Enzyme Activity (relative to DMSO controls)
T41 construct: purchased Reaction Biology Corporation

[43] = biological target: T42, CDK5/P25 (Homo sapiens, UniProt Q00535); assay: HotSpot kinase assay; format: biochemical; details: read-out: % Enzyme Activity (relative to DMSO controls)
T42 construct: purchased Reaction Biology Corporation

T20 sequence (O60307 whole entry): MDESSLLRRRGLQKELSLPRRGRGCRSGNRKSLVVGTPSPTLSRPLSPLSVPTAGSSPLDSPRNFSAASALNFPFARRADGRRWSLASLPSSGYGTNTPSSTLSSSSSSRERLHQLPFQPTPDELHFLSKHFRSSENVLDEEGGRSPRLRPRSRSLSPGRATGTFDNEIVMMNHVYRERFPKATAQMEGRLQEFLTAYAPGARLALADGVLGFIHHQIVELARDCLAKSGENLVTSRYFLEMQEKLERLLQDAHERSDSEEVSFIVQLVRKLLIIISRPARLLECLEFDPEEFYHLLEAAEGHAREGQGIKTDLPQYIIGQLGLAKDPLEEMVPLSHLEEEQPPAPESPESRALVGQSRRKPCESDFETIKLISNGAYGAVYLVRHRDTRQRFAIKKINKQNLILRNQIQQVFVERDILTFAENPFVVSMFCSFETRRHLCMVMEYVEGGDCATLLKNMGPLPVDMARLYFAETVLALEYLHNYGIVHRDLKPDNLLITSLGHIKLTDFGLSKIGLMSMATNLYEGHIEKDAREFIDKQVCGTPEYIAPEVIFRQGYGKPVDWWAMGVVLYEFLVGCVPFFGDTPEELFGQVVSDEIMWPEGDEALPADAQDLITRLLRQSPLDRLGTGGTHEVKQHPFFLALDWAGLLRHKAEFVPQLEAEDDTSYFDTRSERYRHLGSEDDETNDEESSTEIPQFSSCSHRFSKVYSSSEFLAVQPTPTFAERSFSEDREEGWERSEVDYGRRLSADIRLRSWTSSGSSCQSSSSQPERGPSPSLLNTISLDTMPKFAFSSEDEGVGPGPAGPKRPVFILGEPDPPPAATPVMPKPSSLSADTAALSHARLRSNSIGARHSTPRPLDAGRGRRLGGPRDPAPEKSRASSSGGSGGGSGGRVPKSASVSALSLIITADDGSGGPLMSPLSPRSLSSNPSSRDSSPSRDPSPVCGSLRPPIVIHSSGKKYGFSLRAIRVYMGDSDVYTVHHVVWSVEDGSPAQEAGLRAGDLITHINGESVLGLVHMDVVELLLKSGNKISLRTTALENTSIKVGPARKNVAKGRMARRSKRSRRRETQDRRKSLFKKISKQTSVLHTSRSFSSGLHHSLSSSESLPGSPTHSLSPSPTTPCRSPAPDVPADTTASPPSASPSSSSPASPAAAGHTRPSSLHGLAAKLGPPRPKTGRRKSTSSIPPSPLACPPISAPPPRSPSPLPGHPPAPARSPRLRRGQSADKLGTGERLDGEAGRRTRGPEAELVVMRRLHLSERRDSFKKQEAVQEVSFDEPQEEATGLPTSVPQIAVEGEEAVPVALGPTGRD
T37 sequence (Q9BYT3 whole entry): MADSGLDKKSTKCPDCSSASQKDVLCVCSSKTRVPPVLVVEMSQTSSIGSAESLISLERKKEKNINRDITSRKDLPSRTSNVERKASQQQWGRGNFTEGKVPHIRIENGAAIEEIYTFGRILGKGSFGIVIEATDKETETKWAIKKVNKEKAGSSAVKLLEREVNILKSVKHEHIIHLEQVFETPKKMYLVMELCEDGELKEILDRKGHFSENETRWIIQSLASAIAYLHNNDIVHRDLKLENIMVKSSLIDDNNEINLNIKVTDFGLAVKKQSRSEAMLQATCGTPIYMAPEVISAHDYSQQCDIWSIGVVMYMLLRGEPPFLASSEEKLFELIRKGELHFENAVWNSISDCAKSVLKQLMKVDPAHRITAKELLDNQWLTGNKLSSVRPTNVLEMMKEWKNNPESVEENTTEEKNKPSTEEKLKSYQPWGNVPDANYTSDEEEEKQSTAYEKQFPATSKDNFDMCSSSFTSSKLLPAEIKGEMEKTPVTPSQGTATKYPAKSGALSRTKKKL
T5 sequence (P04626 23-1255): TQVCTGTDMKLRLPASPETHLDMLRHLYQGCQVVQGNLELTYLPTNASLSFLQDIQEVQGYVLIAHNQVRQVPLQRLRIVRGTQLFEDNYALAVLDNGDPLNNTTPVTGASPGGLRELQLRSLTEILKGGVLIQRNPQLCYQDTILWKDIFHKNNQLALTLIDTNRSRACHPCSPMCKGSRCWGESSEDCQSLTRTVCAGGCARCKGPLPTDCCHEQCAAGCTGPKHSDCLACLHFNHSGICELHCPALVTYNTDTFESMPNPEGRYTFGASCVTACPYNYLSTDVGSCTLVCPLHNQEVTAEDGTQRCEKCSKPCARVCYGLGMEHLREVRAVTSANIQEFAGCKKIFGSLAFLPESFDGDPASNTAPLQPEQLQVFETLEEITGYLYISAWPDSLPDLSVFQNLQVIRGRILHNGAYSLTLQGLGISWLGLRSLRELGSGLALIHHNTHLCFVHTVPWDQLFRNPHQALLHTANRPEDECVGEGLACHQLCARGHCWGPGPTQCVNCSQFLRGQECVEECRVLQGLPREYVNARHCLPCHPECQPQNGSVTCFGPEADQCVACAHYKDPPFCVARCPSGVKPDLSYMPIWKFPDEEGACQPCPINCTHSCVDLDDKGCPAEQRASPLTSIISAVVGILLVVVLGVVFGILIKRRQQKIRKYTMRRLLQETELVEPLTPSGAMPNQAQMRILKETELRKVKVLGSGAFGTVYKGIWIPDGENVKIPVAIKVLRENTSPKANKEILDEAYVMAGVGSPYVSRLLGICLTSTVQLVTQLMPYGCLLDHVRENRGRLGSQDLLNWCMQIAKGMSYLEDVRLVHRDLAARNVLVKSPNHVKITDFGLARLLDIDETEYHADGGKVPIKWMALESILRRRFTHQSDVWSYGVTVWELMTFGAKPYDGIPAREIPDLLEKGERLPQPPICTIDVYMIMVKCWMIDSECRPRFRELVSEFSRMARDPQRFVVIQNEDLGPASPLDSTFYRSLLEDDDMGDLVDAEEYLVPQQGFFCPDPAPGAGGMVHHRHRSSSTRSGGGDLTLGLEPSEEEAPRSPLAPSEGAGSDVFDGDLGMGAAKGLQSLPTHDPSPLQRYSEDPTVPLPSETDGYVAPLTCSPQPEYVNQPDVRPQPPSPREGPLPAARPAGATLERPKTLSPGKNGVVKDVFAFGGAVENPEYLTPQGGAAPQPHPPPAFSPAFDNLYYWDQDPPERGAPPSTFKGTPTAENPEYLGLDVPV
T3 sequence (P29322 28-1005): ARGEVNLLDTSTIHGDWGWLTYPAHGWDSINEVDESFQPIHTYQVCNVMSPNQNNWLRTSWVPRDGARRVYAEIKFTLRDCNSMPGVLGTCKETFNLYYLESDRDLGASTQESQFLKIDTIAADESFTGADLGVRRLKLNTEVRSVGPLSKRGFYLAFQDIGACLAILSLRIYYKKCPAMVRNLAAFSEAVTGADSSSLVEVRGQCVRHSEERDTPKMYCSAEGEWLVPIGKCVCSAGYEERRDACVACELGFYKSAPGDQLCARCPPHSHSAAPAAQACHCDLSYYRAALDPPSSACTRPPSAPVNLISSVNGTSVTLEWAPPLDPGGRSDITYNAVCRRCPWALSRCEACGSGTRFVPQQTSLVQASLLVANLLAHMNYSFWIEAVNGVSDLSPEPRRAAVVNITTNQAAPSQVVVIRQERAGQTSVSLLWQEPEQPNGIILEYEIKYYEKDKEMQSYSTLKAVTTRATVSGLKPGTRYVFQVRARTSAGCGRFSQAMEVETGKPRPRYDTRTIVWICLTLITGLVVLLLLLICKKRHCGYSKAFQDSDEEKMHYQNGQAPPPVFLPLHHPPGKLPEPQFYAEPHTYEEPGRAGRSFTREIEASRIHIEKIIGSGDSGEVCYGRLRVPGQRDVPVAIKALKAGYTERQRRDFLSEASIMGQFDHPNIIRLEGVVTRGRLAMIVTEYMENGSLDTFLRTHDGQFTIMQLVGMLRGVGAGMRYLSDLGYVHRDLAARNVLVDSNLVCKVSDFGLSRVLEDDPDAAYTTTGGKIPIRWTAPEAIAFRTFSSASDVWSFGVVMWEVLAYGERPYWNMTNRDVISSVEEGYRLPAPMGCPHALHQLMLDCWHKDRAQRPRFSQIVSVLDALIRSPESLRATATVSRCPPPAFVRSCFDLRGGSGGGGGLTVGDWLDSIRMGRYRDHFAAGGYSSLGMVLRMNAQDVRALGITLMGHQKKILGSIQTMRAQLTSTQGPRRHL
T26 sequence (Q13976 whole entry): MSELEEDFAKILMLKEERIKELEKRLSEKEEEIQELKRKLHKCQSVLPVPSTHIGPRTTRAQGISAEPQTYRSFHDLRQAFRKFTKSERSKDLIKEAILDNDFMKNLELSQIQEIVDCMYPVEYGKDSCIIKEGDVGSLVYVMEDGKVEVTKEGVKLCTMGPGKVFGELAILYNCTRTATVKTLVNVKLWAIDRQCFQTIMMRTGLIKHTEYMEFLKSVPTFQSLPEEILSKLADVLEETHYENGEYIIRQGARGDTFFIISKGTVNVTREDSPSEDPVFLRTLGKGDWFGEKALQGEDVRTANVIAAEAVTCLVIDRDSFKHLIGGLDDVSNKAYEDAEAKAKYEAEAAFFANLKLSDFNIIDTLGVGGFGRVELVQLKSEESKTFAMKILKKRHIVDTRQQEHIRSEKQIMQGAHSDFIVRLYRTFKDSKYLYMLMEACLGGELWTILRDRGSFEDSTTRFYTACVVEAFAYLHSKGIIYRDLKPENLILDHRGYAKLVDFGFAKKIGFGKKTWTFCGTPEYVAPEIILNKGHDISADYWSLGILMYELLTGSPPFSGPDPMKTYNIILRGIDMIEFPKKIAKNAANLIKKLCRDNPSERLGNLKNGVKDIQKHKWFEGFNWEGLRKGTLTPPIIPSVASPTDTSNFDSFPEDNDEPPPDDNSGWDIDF
T12 sequence (Q8IU85 whole entry): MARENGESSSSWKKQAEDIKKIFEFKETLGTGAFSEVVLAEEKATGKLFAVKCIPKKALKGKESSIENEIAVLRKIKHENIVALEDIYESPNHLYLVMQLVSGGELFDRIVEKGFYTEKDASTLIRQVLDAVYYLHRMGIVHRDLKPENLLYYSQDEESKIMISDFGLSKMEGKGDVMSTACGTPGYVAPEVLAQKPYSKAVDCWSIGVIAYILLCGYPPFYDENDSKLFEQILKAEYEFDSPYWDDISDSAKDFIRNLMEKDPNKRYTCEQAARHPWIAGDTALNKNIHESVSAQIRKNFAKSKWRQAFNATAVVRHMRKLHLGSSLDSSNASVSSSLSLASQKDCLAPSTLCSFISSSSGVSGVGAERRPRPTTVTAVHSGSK

Compound: CO[C@@H]1[C@H](N(C)C(=O)CCC(=O)NCc2cn(CCCS(=O)(=O)O)nn2)C[C@H]2O[C@]1(C)n1c3ccccc3c3c4c(c5c6ccccc6n2c5c31)C(=O)NC4 [CIMSS]
- remaining activity at 10 µM [1]: 31.5%
- PARP-1 or caspase 8 cleavage [2]: did not induce
- remaining activity at 10 µM [3]: 2.11%
- remaining activity at 10 µM [4]: 70.1%
- remaining activity at 10 µM [5]: 2.4%
- remaining activity at 10 µM [6]: 35.9%
- remaining activity at 10 µM [7]: 59.5%
- remaining activity at 10 µM [8]: 1.53%
- remaining activity at 10 µM [9]: 8.32%
- remaining activity at 10 µM [10]: 11.8%
- remaining activity at 10 µM [11]: 6.62%
- remaining activity at 10 µM [12]: 1.13%
- remaining activity at 10 µM [13]: 20.3%
- remaining activity at 10 µM [14]: 85.6%
- remaining activity at 10 µM [15]: 28.5%
- remaining activity at 10 µM [16]: 8.02%
- remaining activity at 10 µM [17]: 23.6%
- remaining activity at 10 µM [18]: 66.6%
- remaining activity at 10 µM [19]: 4.7%
- remaining activity at 10 µM [20]: 18.4%
- remaining activity at 10 µM [21]: 106%
- remaining activity at 10 µM [22]: 4.17%
- remaining activity at 10 µM [23]: 7.56%
- remaining activity at 10 µM [24]: 91%
- remaining activity at 10 µM [25]: 4.97%
- remaining activity at 10 µM [26]: 84.5%
- remaining activity at 10 µM [27]: 7.02%
- remaining activity at 10 µM [28]: 83%
- remaining activity at 10 µM [29]: 10.4%
- remaining activity at 10 µM [30]: 2.85%
- remaining activity at 10 µM [31]: 3.52%
- remaining activity at 10 µM [32]: 21.3%
- remaining activity at 10 µM [33]: 1.83%
- remaining activity at 10 µM [34]: 28.9%
- remaining activity at 10 µM [35]: 61.6%
- IC50 ([36]; Supplementary Table 1, read-out: IC50 (Molar concentration)): 42.3 nM
- remaining activity at 10 µM ([36]; read-out: % Enzyme Activity (relative to DMSO controls), 10µM): 6.32%
- remaining activity at 10 µM [37]: 1.4%
- remaining activity at 10 µM [38]: 9.17%
- remaining activity at 10 µM [39]: 4.57%
- remaining activity at 10 µM [40]: 9.17%
- remaining activity at 10 µM [41]: 99.5%
- remaining activity at 10 µM [42]: 0.88%
- remaining activity at 10 µM [43]: 7.17%
